According to ChEMBL document CHEMBL3734752, “Acylhydrazone derivatives as potential anticancer agents: Synthesis, bio-evaluation and mechanism of action” (Bioorg Med Chem Lett, 2015):
In brackets after ≈: the same amount, converted by molar mass. Activity calls are given as the source filed them. No cut-off for these calls is given here.

Legend:
HepG2 [1] = test: Cytotoxicity against human HepG2 cells assessed as inhibition of cell proliferation after 72 hrs by MTT assay; assay type: functional, cell-based; conditions: for IC50: HepG2, 72 h
[2] = (§1) Cytotoxicity against human BCG823 cells assessed as inhibition of cell proliferation after 72 hrs by MTT assay; assay type: functional, cell-based; conditions: BCG823, 72 h
[3] = (§2) Cytotoxicity against human HuH7 cells assessed as inhibition of cell proliferation after 72 hrs by MTT assay; assay type: functional, cell-based; conditions: Huh-7, 72 h
HepG2 [4] = test: Induction of apoptosis in human HepG2 cells assessed as early apoptotic cells at IC50 concentration after 24 hrs by Annexin V-FITC/propidium iodide staining-based flow cytometry (reference value: 1.2 %); assay type: functional
HepG2 [5] = test: Cytotoxicity against human HepG2 cells assessed as inhibition of cell proliferation at 40 ug/ml after 72 hrs by MTT assay; assay type: functional, cell-based
BCG823 [6] = test: Cytotoxicity against human BCG823 cells assessed as inhibition of cell proliferation at 40 ug/ml after 72 hrs by MTT assay; assay type: functional, cell-based
Huh-7 [7] = test: (§3) Cytotoxicity against human HuH7 cells assessed as inhibition of cell proliferation at 40 ug/ml after 72 hrs by MTT assay; assay type: functional
BCG823 [8] = test: as §1; assay type: functional, cell-based
HepG2 [9] = test: Induction of apoptosis in human HepG2 cells assessed as viable cells at IC50 concentration after 24 hrs by Annexin V-FITC/propidium iodide staining-based flow cytometry (reference value: 97 %); assay type: functional
HepG2 [10] = test: Induction of apoptosis in human HepG2 cells assessed as late apoptotic cells at IC50 concentration after 24 hrs by Annexin V-FITC/propidium iodide staining-based flow cytometry (reference value: 0.2 %); assay type: functional
HepG2 [11] = test: Induction of apoptosis in human HepG2 cells assessed as necrotic cells at IC50 concentration after 24 hrs by Annexin V-FITC/propidium iodide staining-based flow cytometry (reference value: 1.6 %); assay type: functional
HepG2 [12] = test: Induction of apoptosis in human HepG2 cells assessed as viable cells at 2 times IC50 after 24 hrs by Annexin V-FITC/propidium iodide staining-based flow cytometry (reference value: 97 %); assay type: functional
HepG2 [13] = test: Induction of apoptosis in human HepG2 cells assessed as early apoptotic cells at 2 times IC50 after 24 hrs by Annexin V-FITC/propidium iodide staining-based flow cytometry (reference value: 1.2 %); assay type: functional
HepG2 [14] = test: Induction of apoptosis in human HepG2 cells assessed as late apoptotic cells at 2 times IC50 after 24 hrs by Annexin V-FITC/propidium iodide staining-based flow cytometry (reference value: 0.2 %); assay type: functional
HepG2 [15] = test: Induction of apoptosis in human HepG2 cells assessed as necrotic cells at 2 times IC50 after 24 hrs by Annexin V-FITC/propidium iodide staining-based flow cytometry (reference value: 1.6 %); assay type: functional
Huh-7 [16] = test: as §2; assay type: functional, cell-based
[17] = as §3; assay type: functional; conditions: Huh-7, 72 h

For `COc1cc(/C=N/NC(=O)c2ccc(CSc3nc4ccccc4s3)cc2)cc(OC)c1OC`, the IC50 (HepG2 [1]) was over 80 µg/mL, the IC50 [2] was over 80 µg/mL and the IC50 [3] was over 80 µg/mL.

`C/C(=N\NC(=O)c1ccc(CSc2nc(C)cc(C)n2)cc1)c1ccc(C)c([N+](=O)[O-])c1` gave an IC50 (HepG2 [1]) of over 80 µg/mL, an IC50 [2] of over 80 µg/mL and an IC50 [3] of over 80 µg/mL.

In the case of `C/C(=N\NC(=O)c1ccc(CSc2nc3ccccc3s2)cc1)c1ccc(C)c([N+](=O)[O-])c1`, the IC50 (HepG2 [1]) is reported as over 80 µg/mL, the IC50 [2] is reported as over 80 µg/mL and the IC50 [3] is reported as over 80 µg/mL.

With `COc1cc(/C=N/NC(=O)CSc2nc3ccccc3s2)cc(OC)c1OC` the IC50 (HepG2 [1]) was over 80 µg/mL, the IC50 [2] was over 80 µg/mL and the IC50 [3] was over 80 µg/mL.

For `C/C(=N\NC(=O)c1ccc(CSc2nc(C)cc(C)n2)cc1)c1ccc(F)cc1`, the Activity (HepG2 [4]) was 10.3%, the inhibition (HepG2 [5]) was “Active” and the inhibition (BCG823 [6]) was “Active”. The inhibition (Huh-7 [7]) was “Active”, the inhibition (HepG2 [1]) was “Dose-dependent effect” and the IC50 (HepG2 [1]) was 4.85 µg/mL (≈ 11.9 µM). For the same molecule, the IC50 [2] was 3.88 µg/mL (≈ 9.5 µM), the inhibition (BCG823 [8]) was “Dose-dependent effect” and the IC50 [3] was 3.25 µg/mL (≈ 7.96 µM). For the same molecule, the Activity (HepG2 [9]) was 83.8%, the Activity (HepG2 [10]) was 1.4% and the Activity (HepG2 [11]) was 4.5%. The Activity (HepG2 [12]) was 76.3%, the Activity (HepG2 [13]) was 16.5% and the Activity (HepG2 [14]) was 2.3%. It also gave an Activity (HepG2 [15]) of 4.9%.

For `C/C(=N\NC(=O)CSc1nc2ccccc2s1)c1ccc(C)c([N+](=O)[O-])c1`, the inhibition (HepG2 [5]) was “Active”, the inhibition (BCG823 [6]) was “Active” and the inhibition (Huh-7 [7]) was “Active”. For the same molecule, the inhibition (HepG2 [1]) was “Dose-dependent effect”, the IC50 (HepG2 [1]) was 33 µg/mL (≈ 82.3 µM) and the IC50 [2] was 17.8 µg/mL (≈ 44.5 µM). The inhibition (BCG823 [8]) was “Dose-dependent effect”, the IC50 [3] was 10.1 µg/mL (≈ 25.1 µM) and the inhibition (Huh-7 [16]) was “Dose-dependent effect”.

For `COc1cc(/C=N/NC(=O)c2ccc(CSc3nc(C)cc(C)n3)cc2)cc(OC)c1OC`, the IC50 (HepG2 [1]) was 33.3 µg/mL (≈ 71.3 µM), the IC50 [2] was 36.8 µg/mL (≈ 78.8 µM) and the IC50 [3] was 17.4 µg/mL (≈ 37.3 µM).

In the case of `O=C(CSc1nc2ccccc2s1)N/N=C1\C(=O)Nc2ccccc21`, the inhibition (HepG2 [5]) is reported as “Active”, the inhibition (BCG823 [6]) is reported as “Active” and the inhibition (Huh-7 [7]) is reported as “Active”. It also gave an IC50 (HepG2 [1]) of 23.9 µg/mL (≈ 65 µM), an IC50 [2] of 17.7 µg/mL (≈ 48 µM) and an IC50 [3] of 13.1 µg/mL (≈ 35.6 µM).

For `O=C1Nc2ccccc2/C1=N/NC(=O)c1ccc(CSc2nc3ccccc3s2)cc1`, the Activity (HepG2 [4]) was 5.5%, the inhibition (HepG2 [5]) was “Active” and the inhibition (BCG823 [6]) was “Active”. For the same molecule, the inhibition (Huh-7 [7]) was “Active”, the inhibition (HepG2 [1]) was “Dose-dependent effect” and the IC50 (HepG2 [1]) was 5.71 µg/mL (≈ 12.8 µM). For the same molecule, the IC50 [2] was 11.9 µg/mL (≈ 26.7 µM), the inhibition (BCG823 [8]) was “Dose-dependent effect” and the IC50 [3] was 4.58 µg/mL (≈ 10.3 µM). It also gave an Activity (HepG2 [9]) of 89.3%, an Activity (HepG2 [10]) of 3.7% and an Activity (HepG2 [11]) of 1.6%. For the same molecule, the Activity (HepG2 [12]) was 77.7%, the Activity (HepG2 [13]) was 14.5% and the Activity (HepG2 [14]) was 2.2%. It also gave an Activity (HepG2 [15]) of 5.6%.

In the case of `O=c1[nH]cc(F)c(=O)[nH]1` [FLUOROURACIL], the inhibition (HepG2 [1]) is reported as “Dose-dependent effect”, the IC50 (HepG2 [1]) is reported as 36 µg/mL (≈ 277 µM) and the IC50 [2] is reported as 17.4 µg/mL (≈ 134 µM). For the same molecule, the inhibition (BCG823 [8]) was “Dose-dependent effect”, the IC50 [3] was 10.4 µg/mL (≈ 80 µM) and the inhibition (Huh-7 [16]) was “Dose-dependent effect”.

`O=C(N/N=C/c1c[nH]c2ccccc12)c1ccc(CSc2nc3ccccc3s2)cc1` showed an inhibition at 40 µg/mL [17] of 74%, an IC50 (HepG2 [1]) of over 80 µg/mL and an IC50 [2] of over 80 µg/mL. For the same molecule, the IC50 [3] was 7.74 µg/mL (≈ 17.5 µM).

Molecule `C/C(=N\NC(=O)CSc1nc2ccccc2s1)c1ccc([N+](=O)[O-])cc1` has an IC50 (HepG2 [1]) of over 80 µg/mL, an IC50 [2] of 35.7 µg/mL (≈ 92.4 µM) and an IC50 [3] of 39.7 µg/mL (≈ 103 µM).

`Cc1cc(C)nc(SCc2ccc(C(=O)N/N=C/c3c[nH]c4ccccc34)cc2)n1` showed an IC50 (HepG2 [1]) of 34.1 µg/mL (≈ 82.2 µM), an IC50 [2] of 35.5 µg/mL (≈ 85.5 µM) and an IC50 [3] of 23.2 µg/mL (≈ 55.9 µM).

With `C/C(=N\NC(=O)c1ccc(CSc2nc3ccccc3s2)cc1)c1ccc([N+](=O)[O-])cc1` the IC50 (HepG2 [1]) was 35.7 µg/mL (≈ 77.2 µM), the IC50 [2] was 31.3 µg/mL (≈ 67.7 µM) and the IC50 [3] was 4.46 µg/mL (≈ 9.64 µM).

Molecule `O=C(CSc1nc2ccccc2s1)N/N=C/c1c[nH]c2ccccc12` has an inhibition at 40 µg/mL [17] of 55%, an IC50 (HepG2 [1]) of over 80 µg/mL and an IC50 [2] of over 80 µg/mL. For the same molecule, the IC50 [3] was 32.9 µg/mL (≈ 89.7 µM).
